According to patent publication US20180282323A1, “Mesoionic imidazole derivatives as insecticides” (BAYER CROPSCIENCE AKTIENGESELLSCHAFT, priority 2015, published 2018):
Like-named read-outs stand apart in the source and are kept apart here.

Legend:
Diabrotica balteata = Diabrotica balteata spray test; type: in vivo; conditions: application rate 160 μg/well, wheat grains with beetle larvae, after 7 days
Experimental: Diabrotica balteata—Spray Test Solvent: 78 parts by weight of acetone • • 1.5 parts by weight of dimethylformamide Emulsifier: alkylaryl polyglycol ether
(§1) To produce a suitable active ingredient formulation, 1 part by weight of active ingredient is dissolved with the stated parts by weight of solvent and made up with water containing an emulsifier concentration of 1000 ppm until the desired concentration is attained. To produce further test concentrations, the formulation is diluted with emulsifier-containing water.
Pre-swollen wheat grains (Triticum aestivum) are incubated in a multiwell plate filled with agar and a little water for one day (5 seed grains per cavity). The germinated wheat grains are sprayed with an active ingredient formulation of the desired concentration. Subsequently, each cavity is infected with 10-20 beetle larvae of Diabrotica balteata.
After 7 days, the efficacy in % is determined. 100% means that all wheat plants have grown as in the untreated, uninfected control; 0% means that no wheat plant has grown.

Myzus persicae [1] = assay: Myzus persicae spray test (Chinese cabbage leaf discs); type: in vivo; conditions: application rate 500 g/ha, after 6 days
Experimental: Myzus persicae—Spray Test Solvent: 78 parts by weight of acetone • • 1.5 parts by weight of dimethylformamide Emulsifier: alkylaryl polyglycol ether
as §1
Discs of Chinese cabbage leaves (Brassica pekinensis) infested by all stages of the green peach aphid (Myzus persicae) are sprayed with an active ingredient formulation of the desired concentration.
After 6 days, the efficacy in % is determined. 100% means that all the aphids have been killed; 0% means that no aphids have been killed.

[2] = log P by HPLC on reversed-phase column (EEC directive 79/831 Annex V.A8); type: physicochemical; conditions: for log p a): HPLC on reversed-phase column; for log p: HPLC on reversed-phase column (footnote a)
Summary of the method: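 Determined per EEC directive 79/831 Annex V.A8 by HPLC on a reversed-phase C18 column at 43° C.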

Myzus persicae [3] = assay: Myzus persicae oral test; type: in vivo; conditions: application rate 20 ppm, oral uptake through parafilm, after 5 days
Summary of the method: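 Compound dissolved in acetone, diluted with water, then mixed into IPL41 insect medium with sugar in microtitre plates under parafilm. Mixed-population green peach aphids fed through the membrane; % mortality scored after 5 days (100% = all killed).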

Myzus persicae [4] = assay: Myzus persicae spray test (bell pepper plants); type: in vivo; conditions: application rate 100 ppm, after 6 days
Experimental: Myzus persicae—Spray Test Solvent: 14 parts by weight of dimethylformamide Emulsifier: alkylaryl polyglycol ether
as §1, with “water. If the addition of ammonium salts or/and penetrants is required, these are each added in a concentration of 1000 ppm to the formulation solution.” for “water.”
Bell pepper plants (Capsicum annuum) severely infested with the green peach aphid (Myzus persicae) are treated by spraying with the active ingredient formulation in the desired concentration.
After 6 days, the kill in % is determined. 100% means that all of the aphids have been killed; 0% means that none of the aphids have been killed.

Lucilia cuprina = Lucilia cuprina test; type: in vivo; conditions: application rate 100 ppm, L1 larvae, after 2 days
Experimental: Lucilia cuprina Test Solvent: dimethyl sulphoxide
To produce a suitable active ingredient formulation, 10 mg of active ingredient are mixed with 0.5 ml of dimethyl sulphoxide, and the concentrate is diluted with water to the desired concentration.
About 20 L1 larvae of the Australian sheep blowfly (Lucilia cuprina) are transferred into a test vessel containing minced horsemeat and the active ingredient formulation of the desired concentration.
After 2 days, the kill in % is determined. 100% means that all the larvae have been killed; 0% means that no larvae have been killed.

CCCNC(=O)c1c([O-])n(Cc2cnc(Cl)s2)c2c(C)ccc[n+]12 [Example I-1-267]
efficacy (Diabrotica balteata): 100%
efficacy (Myzus persicae [1]): 90%
log p a) [2]: 2.26

O=C(Cn1ccnc1Cl)c1c([O-])n(Cc2cnc(Cl)s2)c2cccc[n+]12 [Example I-1-046]
efficacy (Myzus persicae [3]): 100%
efficacy (kill in %) (Myzus persicae [4]): 95%
log p [2]: 1.44

Cc1cccc(NC(=O)c2c([O-])n(Cc3cnc(Cl)s3)c3cccc[n+]23)c1 [Example I-1-235]
efficacy (Diabrotica balteata): 100%
efficacy (Myzus persicae [3]): 90%
log p a) [2]: 3.21

O=C(Nc1ncccc1F)c1c([O-])n(Cc2cnc(Cl)s2)c2cccc[n+]12 [Example I-1-284]
efficacy (Diabrotica balteata): 80%
efficacy (Myzus persicae [1]): 90%
efficacy (Myzus persicae [3]): 100%
log p a) [2]: 1.68

O=C(Cn1cc(C(F)(F)F)cn1)c1c([O-])n(Cc2cnc(Cl)s2)c2cccc[n+]12 [Example I-1-045]
efficacy (Diabrotica balteata): 80%
efficacy (Myzus persicae [3]): 100%
efficacy (kill in %) (Myzus persicae [4]): 95%
log p [2]: 2.37

Cc1ccc[n+]2c(C(=O)Nc3cccc(C(F)(F)F)c3)c([O-])n(Cc3cnc(Cl)s3)c12 [Example I-1-216]
efficacy (Diabrotica balteata): 100%
efficacy (Myzus persicae [3]): 100%
log p a) [2]: 4.06

CC(C)SCC(=O)c1c([O-])n(Cc2cnc(Cl)s2)c2cccc[n+]12 [Example I-1-027]
efficacy (kill in %) (Lucilia cuprina): 90%
efficacy (Diabrotica balteata): 100%
efficacy (Myzus persicae [1]): 100%
efficacy (Myzus persicae [3]): 100%
log p [2]: 2.27

CCOCC(=O)c1c([O-])n(Cc2ccc(Cl)nc2)c2cccc(C)[n+]12 [Example I-1-114]
efficacy (Myzus persicae [3]): 100%
efficacy (kill in %) (Myzus persicae [4]): 85%
log p [2]: 1.47

CSc1cnn(CC(=O)c2c([O-])n(Cc3cnc(Cl)s3)c3cccc[n+]23)c1 [Example I-1-044]
efficacy (Myzus persicae [3]): 100%
efficacy (kill in %) (Myzus persicae [4]): 80%
log p [2]: 1.97

O=C(NCc1ccccc1)c1c([O-])n(Cc2cnc(Cl)s2)c2cccc[n+]12 [Example I-1-148]
efficacy (Diabrotica balteata): 100%
efficacy (Myzus persicae [3]): 100%
log p [2]: 2.41

O=C(Nc1c(Cl)cccc1Cl)c1c([O-])n(Cc2cnc(Cl)s2)c2cccc[n+]12 [Example I-1-282]
efficacy (Diabrotica balteata): 100%
efficacy (Myzus persicae [1]): 90%
efficacy (Myzus persicae [3]): 100%
log p a) [2]: 2.8

CC(=O)c1c([O-])n(Cc2ccc(Cl)nc2)c2cccc[n+]12 [Example I-1-036]
efficacy (Diabrotica balteata): 100%
efficacy (Myzus persicae [1]): 90%
efficacy (Myzus persicae [3]): 100%
log p [2]: 1.2

O=C(Nc1ccc(F)cc1)c1c([O-])n(Cc2cnc(Cl)s2)c2cccc[n+]12 [Example I-1-227]
efficacy (Diabrotica balteata): 100%
efficacy (Myzus persicae [3]): 100%
efficacy (kill in %) (Myzus persicae [4]): 99%
log p a) [2]: 2.82

Cc1ccc[n+]2c(C(=O)NC3CC3)c([O-])n(Cc3cnc(Cl)s3)c12 [Example I-1-203]
efficacy (Diabrotica balteata): 100%
efficacy (Myzus persicae [3]): 100%
log p a) [2]: 1.93

Cc1ccc[n+]2c(C(=O)COC(C)C)c([O-])n(Cc3cnc(Cl)s3)c12 [Example I-1-292]
efficacy (Diabrotica balteata): 100%
efficacy (Myzus persicae [1]): 90%
efficacy (Myzus persicae [3]): 100%
log p a) [2]: 1.97

COCC(=O)c1c([O-])n(Cc2cnc(Cl)c(Cl)c2)c2cccc[n+]12 [Example I-1-179]
efficacy (Myzus persicae [3]): 100%
efficacy (kill in %) (Myzus persicae [4]): 95%
log p [2]: 1.66

COc1cnn(CC(=O)c2c([O-])n(Cc3cnc(Cl)s3)c3cccc[n+]23)c1 [Example I-1-013]
efficacy (Myzus persicae [3]): 100%
efficacy (kill in %) (Myzus persicae [4]): 85%
log p [2]: 1.58

CNC(=O)c1c([O-])n(C(C)c2ccc(Cl)nc2)c2cccc[n+]12 (stereo not shown) [Example I-1-246]
efficacy (Diabrotica balteata): 100%
efficacy (Myzus persicae [1]): 90%
efficacy (Myzus persicae [3]): 90%
log p a) [2]: 1.41

O=C(Nc1c(F)cccc1Cl)c1c([O-])n(Cc2cnc(Cl)s2)c2cccc[n+]12 [Example I-1-283]
efficacy (Diabrotica balteata): 100%
efficacy (Myzus persicae [1]): 100%
efficacy (Myzus persicae [3]): 100%
log p a) [2]: 2.57

CCOCC(=O)c1c([O-])n(Cc2ccc(Cl)nc2)c2ccc(C)c[n+]12 [Example I-1-113]
efficacy (Myzus persicae [3]): 100%
efficacy (kill in %) (Myzus persicae [4]): 95%
log p [2]: 1.66

O=C(Nc1cccc(OC(F)(F)F)c1)c1c([O-])n(Cc2cnc(Cl)s2)c2cccc[n+]12 [Example I-1-230]
efficacy (Diabrotica balteata): 100%
log p a) [2]: 3.87

O=C(Cn1cc(Cl)cn1)c1c([O-])n(Cc2ccc(Cl)nc2)c2cccc[n+]12 [Example I-1-004]
efficacy (Diabrotica balteata): 100%
efficacy (Myzus persicae [1]): 90%
efficacy (Myzus persicae [3]): 100%
log p [2]: 1.96

O=C(Nc1c(F)cccc1F)c1c([O-])n(Cc2cnc(Cl)s2)c2cccc[n+]12 [Example I-1-231]
efficacy (Diabrotica balteata): 100%
efficacy (Myzus persicae [3]): 100%
efficacy (kill in %) (Myzus persicae [4]): 99%
log p a) [2]: 2.43

O=C(CO)c1c([O-])n(Cc2cnc(Cl)s2)c2cccc[n+]12 [Example I-1-089]
efficacy (kill in %) (Lucilia cuprina): 90%
efficacy (Myzus persicae [3]): 100%
log p [2]: 1.14

O=C(COCc1ccccc1)c1c([O-])n(Cc2cnc(Cl)s2)c2cccc[n+]12 [Example I-1-041]
efficacy (Diabrotica balteata): 80%
efficacy (Myzus persicae [3]): 100%
log p [2]: 2.35

Cc1ccc[n+]2c(C(=O)NC3CC3)c([O-])n(C(C)c3cnc(Cl)s3)c12 (stereo not shown) [Example I-1-290]
efficacy (Diabrotica balteata): 100%
log p a) [2]: 2.2

CCSCC(=O)c1c([O-])n(Cc2cnc(Cl)s2)c2cccc[n+]12 [Example I-1-028, 1-[(2-Chloro-1,3-thiazol-5-yl)methyl]-3-[(ethylsulphanyl)acetyl]-1H-imidazo[1,2-a]pyridin-4-ium-2-olate]
efficacy (Diabrotica balteata): 100%
efficacy (Myzus persicae [1]): 90%
pest or weed control at 20 ppm (Myzus persicae [3]; Myzus persicae, 120 h, read-out: efficacy): 100%
chromatographic logP [2]: 1.99
chromatographic logP ([2]; pH 2.7): 1.99

CC(c1ccc(Cl)nc1)n1c([O-])c(C(=O)Nc2cccc(C(F)(F)F)c2)[n+]2ccccc12 (stereo not shown) [Example I-1-238]
efficacy (Diabrotica balteata): 80%
log p a) [2]: 3.72

O=C(Nc1ccc(F)cc1F)c1c([O-])n(Cc2cnc(Cl)s2)c2cccc[n+]12 [Example I-1-232]
efficacy (Diabrotica balteata): 100%
efficacy (Myzus persicae [3]): 90%
log p a) [2]: 3.13

COCCOCC(=O)c1c([O-])n(Cc2cnc(Cl)s2)c2cccc[n+]12 [Example I-1-087]
efficacy (kill in %) (Lucilia cuprina): 100%
efficacy (Diabrotica balteata): 100%
efficacy (Myzus persicae [1]): 100%
efficacy (Myzus persicae [3]): 100%
log p [2]: 1.38

Cc1ccc[n+]2c(C(=O)Nc3c(F)cccc3F)c([O-])n(C(C)c3cnc(Cl)s3)c12 (stereo not shown) [Example I-1-288]
efficacy (Diabrotica balteata): 100%
efficacy (Myzus persicae [3]): 100%
log p a) [2]: 2.76

Cc1ccc[n+]2c(C(=O)NC3(C#N)CC3)c([O-])n(Cc3ccc(Cl)nc3)c12 [Example I-1-252]
efficacy (Myzus persicae [3]): 90%
efficacy (kill in %) (Myzus persicae [4]): 95%
log p a) [2]: 1.78

COCC(=O)c1c([O-])n(Cc2ccc(Cl)nc2)c2c(C)ccc[n+]12 [Example I-1-193]
efficacy (Myzus persicae [3]): 100%
efficacy (kill in %) (Myzus persicae [4]): 100%
log p [2]: 1.38

CCCNC(=O)c1c([O-])n(Cc2cnc(Cl)s2)c2cccc[n+]12 [Example I-1-129]
efficacy (Diabrotica balteata): 100%
efficacy (Myzus persicae [3]): 100%
log p [2]: 1.98

COC(=O)c1c([O-])n(C(C)c2cnc(Cl)s2)c2c(C)ccc[n+]12 (stereo not shown) [Example I-1-287]
efficacy (Diabrotica balteata): 80%
efficacy (Myzus persicae [3]): 100%
log p a) [2]: 1.68

O=C(NC1CCC1)c1c([O-])n(Cc2cnc(Cl)s2)c2cccc[n+]12 [Example I-1-135]
efficacy (Diabrotica balteata): 80%
efficacy (Myzus persicae [3]): 90%
log p [2]: 2.11

CC(=O)N(CC(=O)c1c([O-])n(Cc2cnc(Cl)s2)c2cccc[n+]12)C1CC1 [Example I-1-062]
efficacy (Myzus persicae [3]): 100%
efficacy (kill in %) (Myzus persicae [4]): 95%
log p [2]: 1.58
